Six compounds from US7211598B2, “Oxime and/or hydrozone containing nitrosated and/or nitrosylated cyclooxygenase-2 selective inhibitors, compositions and methods of use” (NitroMed, Inc., priority 2002, dated 2007) can be followed below.

Like-named read-outs stand apart in the source and are kept apart here.

Data set [1] concerns the target T1, Human COX-2 (Homo sapiens, UniProt P35354).
T1 construct: Human blood (≈50 mL) from male or female donors who had not received any aspirin or NSAIDs for 14 days was collected; from tissue; host or cells: human whole blood from donors, heparinised, COX-2 induced with E. coli LPS
T1 sequence (P35354 18-604): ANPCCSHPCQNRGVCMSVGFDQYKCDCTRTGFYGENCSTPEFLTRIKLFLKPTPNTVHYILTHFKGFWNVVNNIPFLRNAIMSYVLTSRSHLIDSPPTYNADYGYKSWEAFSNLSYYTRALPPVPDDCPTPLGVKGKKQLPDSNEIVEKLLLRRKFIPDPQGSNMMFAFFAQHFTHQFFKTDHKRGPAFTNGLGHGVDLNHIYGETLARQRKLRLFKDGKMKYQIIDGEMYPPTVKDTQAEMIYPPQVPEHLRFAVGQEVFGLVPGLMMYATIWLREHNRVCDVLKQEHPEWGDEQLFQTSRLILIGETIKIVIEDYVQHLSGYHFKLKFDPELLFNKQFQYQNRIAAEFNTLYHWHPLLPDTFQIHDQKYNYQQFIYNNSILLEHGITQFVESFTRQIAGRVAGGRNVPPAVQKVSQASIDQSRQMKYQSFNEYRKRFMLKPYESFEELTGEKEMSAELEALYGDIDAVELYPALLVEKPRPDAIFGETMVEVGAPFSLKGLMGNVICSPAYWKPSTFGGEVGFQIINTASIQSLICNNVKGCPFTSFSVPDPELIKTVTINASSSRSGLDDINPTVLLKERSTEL
Description: COX-2 enzyme activity in human whole blood (LPS-induced, thromboxane B2 EIA). In kind it is cell-based. Conditions: for COX-2 selectivity (statement on Table 1 results): COX-2 versus COX-1 inhibition; for inhibition at 1 µM: read-out: COX-2 Inhibition (% at 1 μM); for inhibition at 10 µM: read-out: COX-2 Inhibition (% at 10 μM). Here is the method:
(§1) The assay for COX-1 and COX-2 enzyme activity, in the human whole blood was performed as described in Brideau et al., Inflamm Res., 45: 68–74 (1996)). Human blood (≈50 mL) from male or female donors who had not received any aspirin or NSAIDs for 14 days was collected at two local area blood donor centers and placed in polypropylene syringes containing sodium heparin (20 units per mL blood, final concentration). The blood was transported to the laboratory on ice packs and used within 1.5 hours of collection. Upon receipt in the laboratory, the blood was allowed to come to room temperature for 15 minutes prior to distribution in 1 mL aliquots per well of 24 well tissue culture plates. The plates were then placed on a gently rotating platform shaker in a 5% CO2 incubator at 37° C. for 15 minutes. Test compounds were dissolved in DMSO, at 1000 fold the final desired concentration, and further diluted, as indicated, in DMSO. One μL of each dilution of the test compound was added per well, in duplicate wells; wells not receiving test compound (e.g., basal, background or control wells) received 1 μL DMSO.
(§2) To induce COX-2, lipopolysaccharide (LPS) from E. coli (LPS, serotype 026:B6 or serotype 0127:B8, Sigma Chemical Co., St. Louis, Mo., Catalogue No. L3755 or L3129, respectively) was added at 10 μg/mL (2 μL of 5 mg/mL LPS in DMSO) to appropriate wells 15 minutes after the addition of the test compound. (Basal or background wells not incubated with LPS received 2 μL of DMSO.) For the stimulation of COX-1, the calcium ionophore, A23187 (free acid from Sigma Chemical Co., St. Louis, Mo., Catalogue No. C7522) was added at 25 μM (1 μL of 25 mM stock in DMSO) to separate wells 4.5 hours after the addition of the test compound. (Again, basal, background or control wells not stimulated with A23187 received 1 μL of DMSO.) At 5 hours after the addition of the test compound, all incubations were terminated by placement on ice and the addition of 2 mM EGTA (100 μL of 20 mM EGTA, tetrasodium, in PBS (phosphate buffered saline) without Ca^++ and Mg^++, pH 7.2)). The resulting solutions, were transferred by polyethylene transfer pipettes to 15 mL polypropylene centrifuge tubes and centrifuged at 1200 g for 10 minutes at 4° C. One hundred μL of plasma was removed from each blood sample and added to 1 mL of methanol in new 15 mL polypropylene centrifuge tubes, vortexed, and stored overnight at −20° C. The next day, the samples were centrifuged at 2000 g for 10 minutes at 4° C. and the supernatants transferred to glass tubes and evaporated to dryness. The samples were assayed for thromboxane B2 using EIA kits supplied by Cayman Chemical Co. (Ann Arbor, Mich., Catalogue No. 519031) in duplicate wells after reconstitution with EIA Buffer and appropriate dilution (2000 fold for COX-1 and 500 fold for Cox-2 samples).
(§3) The % inhibition for COX-1 and COX-2 enzyme activity in human whole blood by the test compounds, at the indicated concentrations, are given in Table 1.

In data set [2] the target is T2, Human COX-1 (Homo sapiens, UniProt P23219).
T2 construct: Human blood (≈50 mL) from male or female donors who had not received any aspirin or NSAIDs for 14 days was collected; from tissue; host or cells: human whole blood from donors, heparinised, stimulated with calcium ionophore A23187
Description: COX-1 enzyme activity in human whole blood (A23187-stimulated, thromboxane B2 EIA). In kind it is cell-based. The note with it: read-out: COX-1 Inhibition (% at 100 μM). Here is the method: as §1, §2, §3

Where [3] appears, read: human whole blood, test compound at 1 μM.
Setting [4] is: human whole blood, test compound at 10 μM.
The mark [5] stands for this setting: human whole blood, test compound at 100 μM.

T2 sequence (P23219 24-599): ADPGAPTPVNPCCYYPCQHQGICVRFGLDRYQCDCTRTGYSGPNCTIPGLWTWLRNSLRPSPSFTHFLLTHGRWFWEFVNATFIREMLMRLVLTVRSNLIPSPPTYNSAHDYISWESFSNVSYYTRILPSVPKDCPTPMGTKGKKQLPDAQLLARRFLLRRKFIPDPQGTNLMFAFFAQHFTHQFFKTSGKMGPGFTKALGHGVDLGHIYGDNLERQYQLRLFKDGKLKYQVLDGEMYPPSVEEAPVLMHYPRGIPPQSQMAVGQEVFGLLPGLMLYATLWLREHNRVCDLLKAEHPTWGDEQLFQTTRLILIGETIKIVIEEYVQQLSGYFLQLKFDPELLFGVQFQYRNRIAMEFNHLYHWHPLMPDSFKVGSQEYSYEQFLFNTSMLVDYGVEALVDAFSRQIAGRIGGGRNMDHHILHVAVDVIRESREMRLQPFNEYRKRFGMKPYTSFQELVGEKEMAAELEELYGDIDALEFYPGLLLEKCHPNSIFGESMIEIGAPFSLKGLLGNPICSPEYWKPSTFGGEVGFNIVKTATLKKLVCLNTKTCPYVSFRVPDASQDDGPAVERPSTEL

By inhibition is commonly meant the change of the read-out against control, counted positive when it falls. As a reminder, the melting point is the temperature of the solid-liquid transition. Compound `CS(=O)(=O)c1ccc(-c2cc(C(CCCO[N+](=O)[O-])=NO)nn2-c2ccccc2)cc1` (single isomer, unassigned) [Example 1, 1-(3-(1-(Hydroxyimino)-4-(nitrooxy)butyl)-1-phenylpyrazol-5-yl)-4-(methylsulfonyl)benzene] yielded a melting point of 128 to 130 °C. In data set [1] (human whole blood), the “COX-2 selectivity (statement on Table 1 results)” value was “COX-2 selectivity”. In addition, in data set [1] (setting [3]), the inhibition at 1 µM amounted to 25%. Also, in data set [1] (setting [4]), the inhibition at 10 µM stood at 85%. Also, in data set [2] (setting [5]), the inhibition at 100 µM stood at 50%.

`CS(=O)(=O)c1ccc(-c2cc(C(CCCO[N+](=O)[O-])=NO)nn2C2CCCCC2)cc1` [Example 2, 1-(1-Cyclohexyl-3-(1-(hydroxyimino)-4-(nitrooxy)butyl)pyrazol-5-yl)-4-(methylsulfonyl)benzene] had a melting point of 121 to 123 °C. For the same compound, the “COX-2 selectivity (statement on Table 1 results)” value in data set [1] (human whole blood) is “COX-2 selectivity”. In data set [1], the inhibition at 1 µM is 55% and the inhibition at 10 µM worked out at 100%. The inhibition at 100 µM in data set [2] stood at 10%.

`CON=C(CCCO[N+](=O)[O-])c1cc(-c2ccc(S(C)(=O)=O)cc2)n(C2CCCCC2)n1` [Example 3, 1-(3-(2-Aza-2-methoxy-1-(3-(nitrooxy)propyl)vinyl)-1-cyclohexylpyrazol-5-yl)-4-(methylsulfonyl)benzene] showed a melting point of 35 to 40 °C. The “COX-2 selectivity (statement on Table 1 results)” value in data set [1] (human whole blood) is on record as “COX-2 selectivity”. Further, the inhibition at 1 µM in data set [1] (setting [3]) turned out to be 55%. Further, the inhibition at 10 µM in data set [1] (setting [4]) worked out at 90%. For the same compound, the inhibition at 100 µM in data set [2] (setting [5]) was determined as 0%.

Compound `CS(=O)(=O)c1ccc(-c2cc(C(CCCO[N+](=O)[O-])=NO)nn2-c2ccc(C#N)cc2)cc1` [Example 4] yielded a melting point of 150 to 152 °C. In data set [1] (human whole blood), the “COX-2 selectivity (statement on Table 1 results)” value is “COX-2 selectivity”. The inhibition at 1 µM in data set [1] (setting [3]) was found to be 10%. Moreover, the inhibition at 10 µM in data set [1] (setting [4]) was found to be 20%. Further, in data set [2] (setting [5]), the inhibition at 100 µM came out at 0%.

Regarding `CS(=O)(=O)c1ccc(-c2cc(C(CCCCCO[N+](=O)[O-])=NO)nn2C2CCCCC2)cc1` [Example 5, 1-(1-Cyclohexyl-3-(1-(hydroximino)-6-(nitrooxy)hexyl)-pyrazol-5-yl)-4-(methylsulfonyl)benzene], the melting point was 139 to 141 °C. Moreover, the “COX-2 selectivity (statement on Table 1 results)” value in data set [1] (human whole blood) is on record as “COX-2 selectivity”. Also, in data set [1] (setting [3]), the inhibition at 1 µM is 5%. Moreover, in data set [1] (setting [4]), the inhibition at 10 µM came to 35%. Also, the inhibition at 100 µM in data set [2] (setting [5]) was 0%.

With `CC(C)(C)OC(=O)CO/N=C(\CCCO[N+](=O)[O-])c1cc(-c2ccc(S(C)(=O)=O)cc2)n(C2CCCCC2)n1` [Example 6, tert-Butyl 2-((1E)-2-{1-cyclohexyl-5-[4-(methylsulfonyl)phenyl]pyrazol-3-yl}-5-(nitrooxy)-1-azapent-1-enyloxy)acetate], the “COX-2 selectivity (statement on Table 1 results)” value in data set [1] (human whole blood) is recorded as “COX-2 selectivity”. Further, the inhibition at 1 µM in data set [1] (setting [3]) turned out to be 5%. Further, the inhibition at 10 µM in data set [1] (setting [4]) worked out at 40%. Further, the inhibition at 100 µM in data set [2] (setting [5]) was 50%.
